Measurements as given in patent publication US20060148055A1, “Oxidised fragments of apolioprotein B and their uses” (priority 1997, published 2006).
No end group written: not given here. MDA = malondialdehyde

System: U937 monocytes
Assay: Inhibition of oxidised LDL uptake by peptides in monocytes in cell culture (DiI-labelled LDL fluorescence)
Assay type: cell-based
Conditions: versus oxidised LDL alone, ANOVA followed by Tukey post test
Description: An experiment was performed to determine in cell culture if uptake of oxidised LDL by U937 monocytes could be inhibited by the peptides according to SEQ ID NOs:1-3, both in their native state and conjugated to MDA.
LDL (1 mg/ml) was labelled with 1,1′-dioctadecyl-3,3,3′,3′,-tetramethylindocarbocyanine perchlorate (DiI) (300 μg/mg LDL) by incubation overnight at 37° C. in the dark under nitrogen. Excess DiI was removed by desalting into PBS (0.01 M phosphate buffer, 0.137 M sodium chloride, pH 7.4) through a PD-10 column.
U937 monocytes were maintained in RPMI media supplemented with heat inactivated fetal calf serum (10%) (FCS) and penicillin/streptomycin (1%). Cells were ‘starved’ of lipids by culturing in RMPI supplemented with penicillin/streptomycin (1%) in the absence of serum, and plated at 1 million cells per well in 6 well plates, 4 hours before treatment with DiI labelled LDL. […] Non-starved cells were also plated at 1 million cells per well in 6 well plates, 4 hours before treatment with DiI labelled LDL. Starved and non-starved cells were treated with DiI labelled LDL (oxidized) (50 μg) in the presence or absence of excess unlabelled peptide (native or MDA-conjugated) (500 μg) as competitor. […] Fluorescence was read at Ex 520 nm, Em 590 nm using a Molecular Devices Gemini XS microplate fluorimeter. […]

RB1: peptide SEQ ID NO: 1 (ALQYKLEGTTR) MDA-conjugated (ALQYK(MDA)LEGTTR)
inhibition of uptake of oxidised LDL by monocytes (in words): inhibition is statistically significant | inhibition of uptake of oxidised LDL by monocytes (in words) (listed as peptide corresponding to SEQ ID NO:1 conjugated to MDA): inhibits uptake
